Data reported in EP4389746A2, “P2X3 RECEPTOR ANTAGONISTS” (Recordati Industria Chimica E Farmaceutica SPA, priority 2022, dated 2024).

Experiments:
[1] = tested on: Sprague-Dawley Rats; assay: Two bottle taste test in rats: dysgeusia effect of P2X3 antagonists; assay type: in vivo; details: rats water fasted overnight; bottles presented 30 minutes after treatment for 15 minutes (Fig. 4)
Description: C57BL/6J mice, Hartley Guinea pigs and Sprague-Dawley Rats from Charles River Italy were used in the experiments. Animals were housed with free access to food and water and maintained on a forced 12 hr light-dark cycle at 22-24°C for at least one week before the experiments were carried out. The animals were handled according to internationally accepted principles for care of laboratory animals (Directive 2010/63/EU of the European Parliament and of the Council of 22 September 2010).
(Fig 3) "Two bottle taste test" in rats - Dysgeusia effect of P2X3 antagonists
Rats were water fasted overnight. The day of the experiment the animals were treated with tested compounds and 30 minutes later two bottles were presented for 15 minutes, the first one containing water and the second bottle containing Quinine, a substance showing a bitter taste. The volume of liquid drunk in 15 minutes from each bottle was recorded and expressed as percentage of preference (Fig.4). Statistical analysis was performed on absolute values (mean ± SEM) using one-way ANOVA and Tukey's test for multiple comparisons.

[2] = target: T1, human P2X3 receptor (Homo sapiens, UniProt P56373); assay: Calcium luminescence measurement: human P2X3 receptor activity inhibition (CHO-K1 cells, photoprotein readout, FLEXSTATION); assay type: cell-based; details: CHO-K1 cells co-expressing human P2X3 and Ca2+ sensitive photoprotein; agonist α,β-Met-ATP; read-out: h-P2X3 IC50
T1 construct: expressed in transfected cells; host or cells: CHO-K1
T1 sequence (P56373 1-397): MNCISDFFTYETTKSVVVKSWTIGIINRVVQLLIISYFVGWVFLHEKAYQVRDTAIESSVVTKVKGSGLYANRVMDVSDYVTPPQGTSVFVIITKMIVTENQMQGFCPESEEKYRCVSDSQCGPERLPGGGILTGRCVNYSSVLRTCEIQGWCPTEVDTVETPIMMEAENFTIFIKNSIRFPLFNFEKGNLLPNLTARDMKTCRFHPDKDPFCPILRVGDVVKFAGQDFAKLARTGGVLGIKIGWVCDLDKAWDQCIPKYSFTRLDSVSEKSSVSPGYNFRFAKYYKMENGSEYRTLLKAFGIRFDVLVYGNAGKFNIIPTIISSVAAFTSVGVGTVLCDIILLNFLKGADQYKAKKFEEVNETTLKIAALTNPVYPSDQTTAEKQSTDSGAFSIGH

CC(C)C1C(=O)N=C2c3ncc(N4CCOCC4)cc3N(Cc3ccc(Cl)cc3)C(=O)N21 (racemic) [Example 22, 6-[(4-Chlorophenyl)methyl]-8-(morpholin-4-yl)-3-(propan-2-yl)imidazo[1,2-c]pyrido[2,3-e]pyrimidine-2,5(3H,6H)-dione]
preference between water and Quinine [1]: showed a clear preference for water in comparison to Quinine
IC50 [2]: 36.8 nM
